Measured values published in patent EP0556660A1, “Utilisation of fatty alpha-hydroxy acids and the compositions containing them” (Beiersdorf Aktiengesellschaft, priority 1992, dated 1993).

Columns and labels:
[1] = Free Ca2+ after addition of test substance, fluorimetric with FURA 2; format: physicochemical; settings: free Ca²⁺ after addition of 1 mmol (1 mM) test substance; pH 7,1; control without fatty acid 200
Description: Die erfindungsgemäßen alpha-Hydroxyfettsäuren haben gegenüber Schwermetallionen, z.B. Fe²⁺ oder Erdalkali-Ionen wie Ca²⁺ eine hohe Bindungsfähigkeit, wie die folgende Untersuchung zeigt: a) Konzentration an freiem Ca²⁺ nach Zugabe von 1 mmol Testsubstanz
(§1) Der Testpuffer (100 mM KCl, 10 mM HEPES, 1 mM EGTA 0,5 mM CaCl₂, pH 7,1) wurden mit je 1 mM der Testsubstanz versetzt. Entstehende Niederschläge wurden abfiltriert. Das Filtrat wurde mit KOH auf pH 7,1 eingestellt und mit 1 µM FURA 2 versetzt. Die Konzentration an Ca²⁺ wurde fluorimetrisch bestimmt (Anregung 340 nm, 359 nm, 380 nm, Emission 510 nm). b) Konzentration an freiem Fe²⁺ nach Zugabe von 1 mmol alpha-Hydroxypalmitinsäure

[2] = Free Fe2+ after addition of test substance, photometric with 2,2'-Bipyridin; format: physicochemical; settings: 1 mmol test substance mixed with 1 mmol Fe²⁺
Description: as §1
1 mmol Testsubstanz wurde mit 1 mmol Fe²⁺ versetzt. Entstehende Niederschläge wurden abfiltriert. Die Filtrate wurden mit 2,2'-Bipyridin versetzt und bei 565 nm photometrisch vermessen.

[3] = test system: Acinetobacter calcoaceticus; assay: Minimal inhibitory concentration; format: cell-based; settings: 72 h incubation
Description: (§2) Bestimmung der minimalen Hemmkonzentration Eine frische Übernachtkultur des Testorganismus wurde 1:10⁴ in Nährmedium (5 g/ltr Tryptone, 3 g/ltr Hefeextrakt, pH 7,0) verdünnt und 3h inkubiert (30° C, 250 rpm). Anschließend wurde alpha-Hydroxy-palmitinsäure (D) in einer Endkonzentration von 2,0%; 1,5%; 1,0%; 0,75%; 0,5%; 0,25%; 0,1% und 0,06% zugegeben. Nach 72 h Inkubationszeit wurden der Bakterientiter durch Verdünnung und Ausplattierung überprüft. Bei den Ansätzen, bei denen keine Bakterien nachweisbar waren, wurde 1 ml des Ansatzes mit 9 ml Nährmedium versetzt und über Nacht inkubiert (30° C, 250 rpm). […]

[4] = test system: Corynebacterium xerosis; assay: Minimal inhibitory concentration; format: cell-based; settings: 72 h incubation
Description: as §2

[5] = test system: Escherichia coli; assay: Minimal inhibitory concentration; format: cell-based; settings: 72 h incubation
Description: as §2

[6] = test system: Klebsiella pneumoniae; assay: Minimal inhibitory concentration; format: cell-based; settings: 72 h incubation
Description: as §2

[7] = test system: Micrococcus luteus; assay: Minimal inhibitory concentration; format: cell-based; settings: 72 h incubation
Description: as §2

[8] = test system: Pseudomonas aeruginosa; assay: Minimal inhibitory concentration; format: cell-based; settings: 72 h incubation
Description: as §2

[9] = test system: Pseudomonas putida; assay: Minimal inhibitory concentration; format: cell-based; settings: 72 h incubation
Description: as §2

[10] = test system: Salmonella livingstone; assay: Minimal inhibitory concentration; format: cell-based; settings: 72 h incubation
Description: as §2

[11] = test system: Staphylococcus epidermidis; assay: Minimal inhibitory concentration; format: cell-based; settings: 72 h incubation
Description: as §2

| SMILES | Konz. Ca²⁺ [1] | Konz. Fe²⁺ [2] | other results |
| --- | --- | --- | --- |
| O=C(O)CC(O)(CC(=O)O)C(=O)O [Citronensäure] | 139 nmol | 110 µmol | – |
| O=C(O)CN(CCN(CC(=O)O)CC(=O)O)CC(=O)O [EDTA] | 25 nmol | – | – |
| O=C(O)C(O)c1ccccc1 (stereo not shown) [Mandelsäure] | 200 nmol | 100 µmol | – |
| CCCCCCCCCCCCCC(=O)O [Myristinsäure] | 233 nmol | – | – |
| CCCCCCCCCCCCCCCC(=O)O [Palmitinsäure] | 249 nmol | – | – |
| CCCCCCCCCCCCC(O)C(=O)O (stereo not drawn) [alpha-Hydroxy-myristinsäure] | 32 nmol | – | – |
| CCCCCCCCCCCCCCC(O)C(=O)O (stereo not drawn) [alpha-Hydroxypalmitinsäure] | 38 nmol | 20 µmol | – |
| CCCCCCCCCCCCCC[C@@H](O)C(=O)O [alpha-OH-Hexadecansäure (D), alpha-Hydroxy-hexadecansäure] | – | – | Minimale Hemmkonzentration [3]: 0,75%; Minimale Hemmkonzentration [4]: 0,10%; Minimale Hemmkonzentration [5]: 0,50%; Minimale Hemmkonzentration [6]: 0,50%; Minimale Hemmkonzentration [7]: 0,25%; Minimale Hemmkonzentration [8]: 0,25%; Minimale Hemmkonzentration [9]: 0,10%; Minimale Hemmkonzentration [10]: 0,50%; Minimale Hemmkonzentration [11]: 0,10% |
